Data reported in ChEMBL document CHEMBL1201862, “PubChem BioAssay data set” (2004).
Calls of active or inactive are those of the source.

Columns and labels:
[1] = Vero cell cytotoxicity, dose response, cytotoxicity control for M. tuberculosis growth inhibitor project, Vero cells, purified and synthesized compounds, set 4 (AID 504854); format: functional; conditions: Mycobacterium tuberculosis
[2] = biological target: Cyclin-dependent kinase 5/CDK5 activator 1 (Homo sapiens, UniProt Q00535); assay: human CDK5 activity blockade – biochemical, microfluidic mobility shift, dry powder, selectivity assay for GSK-3 alpha inhibitor project, dose response (AID 588430)
X-box-binding protein 1 = X-box-binding protein 1 (Homo sapiens, UniProt P17861); format: functional, Cricetulus griseus;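 further: confirmatory dose-response counter-screen serving a CHOP assay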
[3] = biological target: Glycogen synthase kinase-3 alpha (Homo sapiens, UniProt P49840); assay: Inhibition of Human GSK-3 alpha Activity Measured in Biochemical System Using Microfluidics - 2063-06_Inhibitor_Dose_DryPowder_Activity_Set2. [Related pubchem assays (depositor defined):AID2709]
[4] = biological target: Glycogen synthase kinase-3 beta (Homo sapiens, UniProt P49841); assay: Inhibition of Human GSK-3 beta Activity Measured in Biochemical System Using Microfluidics - 2063-05_Inhibitor_Dose_DryPowder_Activity_Set2. [Related pubchem assays (depositor defined):AID2709]
[5] = biological target: G-protein coupled receptor 55 (Homo sapiens, UniProt Q9Y2T6); assay: selective activators of receptor GPR55 – imaging, U2OS cells, beta-arrestin-GFP redistribution, primary screen (AID 1961); format: functional
[6] = biological target: T1, High affinity choline transporter 1 (Homo sapiens, UniProt Q9GZV3); assay: human choline transporter potentiators, potency – cell-based, 10-point CRC, membrane potential dye, dose response (AID 602376); format: functional
T1 sequence (Q9GZV3 whole entry): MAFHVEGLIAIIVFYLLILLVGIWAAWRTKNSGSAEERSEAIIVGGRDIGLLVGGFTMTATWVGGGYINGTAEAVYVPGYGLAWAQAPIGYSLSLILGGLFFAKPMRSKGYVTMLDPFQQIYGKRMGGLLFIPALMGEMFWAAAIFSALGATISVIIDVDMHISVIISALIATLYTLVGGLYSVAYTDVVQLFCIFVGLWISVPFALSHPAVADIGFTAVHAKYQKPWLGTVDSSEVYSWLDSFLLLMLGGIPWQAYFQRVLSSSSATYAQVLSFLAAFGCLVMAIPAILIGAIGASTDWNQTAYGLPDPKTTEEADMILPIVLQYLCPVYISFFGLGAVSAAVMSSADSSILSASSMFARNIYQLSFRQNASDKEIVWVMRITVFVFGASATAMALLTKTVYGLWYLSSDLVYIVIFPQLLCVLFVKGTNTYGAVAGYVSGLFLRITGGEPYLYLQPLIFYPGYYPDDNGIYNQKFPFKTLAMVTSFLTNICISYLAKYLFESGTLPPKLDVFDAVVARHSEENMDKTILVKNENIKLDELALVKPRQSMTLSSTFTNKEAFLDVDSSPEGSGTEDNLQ

[7] = biological target: Multidrug resistance protein CDR1 (Candida albicans, UniProt P43071); assay: inhibition of Nile Red efflux via Candida CDR1 – S. cerevisiae AD1-8u, singleplex, Cherry Pick1 hits, dose response (AID 588606); format: functional
[8] = biological target: Protein disulfide-isomerase (Homo sapiens, UniProt P07237); assay: inhibition of PDI-driven insulin aggregation – biochemical, turbidity, absorbance, cherry-picked samples, dose response (AID 602350); format: functional
Candida albicans [9] = assay: resistant Candida growth with fluconazole co-treatment – CaCi-8 strain, Alamar Blue, dry powder, set 3, dose response (AID 488905); format: functional, organism-based
Candida albicans [10] = assay: Candida growth inhibition combined with fluconazole – CaCi-2 strain, Alamar Blue, dry powder, set 3, dose response (AID 488907); format: functional, organism-based

Sequence of X-box-binding protein 1 (P17861 whole entry): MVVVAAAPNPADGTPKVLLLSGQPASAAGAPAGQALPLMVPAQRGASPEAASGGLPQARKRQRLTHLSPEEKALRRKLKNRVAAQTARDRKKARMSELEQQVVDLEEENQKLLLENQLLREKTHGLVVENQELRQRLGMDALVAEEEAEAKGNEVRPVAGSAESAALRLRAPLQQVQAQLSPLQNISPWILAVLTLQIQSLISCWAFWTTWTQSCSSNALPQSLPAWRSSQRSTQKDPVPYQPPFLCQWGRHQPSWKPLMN
Sequence of Protein disulfide-isomerase (P07237 whole entry): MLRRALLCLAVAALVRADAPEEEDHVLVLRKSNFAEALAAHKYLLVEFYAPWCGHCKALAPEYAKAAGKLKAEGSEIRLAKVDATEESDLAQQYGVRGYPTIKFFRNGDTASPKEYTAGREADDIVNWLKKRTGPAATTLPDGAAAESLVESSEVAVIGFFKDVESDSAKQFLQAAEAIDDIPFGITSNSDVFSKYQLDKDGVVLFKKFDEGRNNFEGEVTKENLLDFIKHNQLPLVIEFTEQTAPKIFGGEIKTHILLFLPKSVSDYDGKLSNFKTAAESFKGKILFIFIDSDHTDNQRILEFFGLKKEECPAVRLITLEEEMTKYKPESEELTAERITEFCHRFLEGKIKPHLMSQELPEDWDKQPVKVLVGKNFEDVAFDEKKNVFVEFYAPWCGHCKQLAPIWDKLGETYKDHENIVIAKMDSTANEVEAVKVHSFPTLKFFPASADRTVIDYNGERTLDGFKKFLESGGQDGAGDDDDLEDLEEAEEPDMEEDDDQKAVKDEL
Sequence of Multidrug resistance protein CDR1 (P43071 whole entry, looked up): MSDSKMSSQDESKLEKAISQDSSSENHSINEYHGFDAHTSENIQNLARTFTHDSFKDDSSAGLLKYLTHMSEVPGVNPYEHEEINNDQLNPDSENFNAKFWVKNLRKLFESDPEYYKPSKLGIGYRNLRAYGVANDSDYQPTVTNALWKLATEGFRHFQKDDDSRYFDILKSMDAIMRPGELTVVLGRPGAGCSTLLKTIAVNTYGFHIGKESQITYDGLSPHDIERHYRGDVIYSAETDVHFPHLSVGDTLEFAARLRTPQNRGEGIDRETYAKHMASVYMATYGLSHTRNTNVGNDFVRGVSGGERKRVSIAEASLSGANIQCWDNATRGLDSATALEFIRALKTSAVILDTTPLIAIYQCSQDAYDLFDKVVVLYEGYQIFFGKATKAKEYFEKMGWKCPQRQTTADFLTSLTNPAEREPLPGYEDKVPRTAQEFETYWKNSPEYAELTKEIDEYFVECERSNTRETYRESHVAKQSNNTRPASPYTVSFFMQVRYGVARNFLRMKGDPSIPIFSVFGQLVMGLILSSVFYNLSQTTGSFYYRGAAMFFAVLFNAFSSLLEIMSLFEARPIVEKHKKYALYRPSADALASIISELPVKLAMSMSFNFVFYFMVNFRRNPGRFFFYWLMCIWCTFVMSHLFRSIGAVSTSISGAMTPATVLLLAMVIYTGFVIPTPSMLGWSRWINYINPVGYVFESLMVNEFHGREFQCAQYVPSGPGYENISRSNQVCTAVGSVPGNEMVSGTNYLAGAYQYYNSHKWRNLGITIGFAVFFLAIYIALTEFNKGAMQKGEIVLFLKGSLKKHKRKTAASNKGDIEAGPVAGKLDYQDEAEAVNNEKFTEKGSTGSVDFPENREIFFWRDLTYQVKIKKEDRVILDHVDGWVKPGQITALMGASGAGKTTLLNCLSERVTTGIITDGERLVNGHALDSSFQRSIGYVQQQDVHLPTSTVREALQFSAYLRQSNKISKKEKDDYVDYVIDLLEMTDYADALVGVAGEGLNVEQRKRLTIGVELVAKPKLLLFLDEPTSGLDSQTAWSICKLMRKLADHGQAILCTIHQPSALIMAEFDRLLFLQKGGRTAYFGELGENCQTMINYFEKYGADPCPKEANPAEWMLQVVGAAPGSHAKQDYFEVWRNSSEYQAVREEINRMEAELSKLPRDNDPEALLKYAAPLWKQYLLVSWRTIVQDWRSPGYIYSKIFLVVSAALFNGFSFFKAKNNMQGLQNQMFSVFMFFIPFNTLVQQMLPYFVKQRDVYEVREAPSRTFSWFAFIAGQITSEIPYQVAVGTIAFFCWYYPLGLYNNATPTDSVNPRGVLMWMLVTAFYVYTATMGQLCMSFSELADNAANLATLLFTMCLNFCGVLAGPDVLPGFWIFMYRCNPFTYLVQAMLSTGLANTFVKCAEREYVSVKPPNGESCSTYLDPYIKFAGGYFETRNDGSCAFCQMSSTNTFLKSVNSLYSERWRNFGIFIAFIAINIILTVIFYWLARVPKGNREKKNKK
Sequence of Cyclin-dependent kinase 5/CDK5 activator 1 (Q00535 whole entry): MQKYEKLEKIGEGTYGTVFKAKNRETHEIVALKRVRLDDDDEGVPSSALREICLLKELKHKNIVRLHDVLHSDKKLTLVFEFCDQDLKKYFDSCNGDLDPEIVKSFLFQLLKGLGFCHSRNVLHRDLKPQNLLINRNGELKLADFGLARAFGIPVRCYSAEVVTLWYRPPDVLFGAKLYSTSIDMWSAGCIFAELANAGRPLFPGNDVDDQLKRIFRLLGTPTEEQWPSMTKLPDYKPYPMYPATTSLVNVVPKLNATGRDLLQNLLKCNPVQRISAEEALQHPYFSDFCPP
Sequence of Cyclin-dependent kinase 5/CDK5 activator 1 (Q15078 whole entry, further chain): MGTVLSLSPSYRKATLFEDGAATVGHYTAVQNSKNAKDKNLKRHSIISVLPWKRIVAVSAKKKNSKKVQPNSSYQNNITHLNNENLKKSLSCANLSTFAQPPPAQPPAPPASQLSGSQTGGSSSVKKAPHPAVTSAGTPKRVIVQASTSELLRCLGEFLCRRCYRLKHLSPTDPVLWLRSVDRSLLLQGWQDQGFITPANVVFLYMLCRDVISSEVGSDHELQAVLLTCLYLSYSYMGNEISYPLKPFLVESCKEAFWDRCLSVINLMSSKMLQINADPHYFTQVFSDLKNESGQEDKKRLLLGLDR
Sequence of G-protein coupled receptor 55 (Q9Y2T6 whole entry): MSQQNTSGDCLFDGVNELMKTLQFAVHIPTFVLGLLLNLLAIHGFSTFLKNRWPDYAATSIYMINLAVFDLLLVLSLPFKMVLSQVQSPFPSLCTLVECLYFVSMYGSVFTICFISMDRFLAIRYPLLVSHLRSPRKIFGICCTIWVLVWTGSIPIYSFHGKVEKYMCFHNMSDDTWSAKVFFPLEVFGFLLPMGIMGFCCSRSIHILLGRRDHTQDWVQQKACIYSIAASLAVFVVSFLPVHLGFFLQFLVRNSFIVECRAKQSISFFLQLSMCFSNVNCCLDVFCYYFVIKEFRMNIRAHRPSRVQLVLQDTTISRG
Sequence of Glycogen synthase kinase-3 alpha (P49840 whole entry): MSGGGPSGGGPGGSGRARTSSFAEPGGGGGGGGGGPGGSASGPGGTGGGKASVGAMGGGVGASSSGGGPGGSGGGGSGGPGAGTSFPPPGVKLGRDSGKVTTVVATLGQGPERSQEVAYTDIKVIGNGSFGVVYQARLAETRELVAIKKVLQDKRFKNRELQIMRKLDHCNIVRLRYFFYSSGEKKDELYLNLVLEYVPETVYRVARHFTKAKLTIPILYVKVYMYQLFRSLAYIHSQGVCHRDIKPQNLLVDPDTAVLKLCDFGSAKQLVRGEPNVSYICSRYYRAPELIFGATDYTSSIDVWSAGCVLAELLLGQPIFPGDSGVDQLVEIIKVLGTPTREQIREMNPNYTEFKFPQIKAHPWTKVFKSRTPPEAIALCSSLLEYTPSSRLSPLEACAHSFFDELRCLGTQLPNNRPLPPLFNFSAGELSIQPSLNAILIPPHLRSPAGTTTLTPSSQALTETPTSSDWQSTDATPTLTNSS
Sequence of Glycogen synthase kinase-3 beta (P49841 whole entry): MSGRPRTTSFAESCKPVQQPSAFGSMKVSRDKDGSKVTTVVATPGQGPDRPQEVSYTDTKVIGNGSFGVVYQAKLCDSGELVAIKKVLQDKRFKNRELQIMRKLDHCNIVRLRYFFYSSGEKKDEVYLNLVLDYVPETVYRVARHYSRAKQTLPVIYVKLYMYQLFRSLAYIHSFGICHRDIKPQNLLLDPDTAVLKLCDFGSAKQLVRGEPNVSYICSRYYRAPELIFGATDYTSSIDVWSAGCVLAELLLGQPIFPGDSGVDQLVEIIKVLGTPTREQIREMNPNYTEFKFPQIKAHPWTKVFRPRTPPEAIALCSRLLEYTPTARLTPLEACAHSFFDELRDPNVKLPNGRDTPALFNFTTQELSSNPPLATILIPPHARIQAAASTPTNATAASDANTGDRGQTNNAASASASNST

With CC(C)CCNC(=O)CSc1nc2c(c(=O)[nH]1)CCC2 the CC50 [1] was > 100 µM (active).
For O=C(Nc1cccc(Cl)c1)Nc1ccnc(-c2cccnc2)n1, the AC50 [2] was 20.8 µM (active), the “Absolute IC50 (XBP1)” value (X-box-binding protein 1) was 10 µM and the AC50 [3] was 3.97 µM (active). For the same compound, the AC50 [4] was 0.716 µM (active).
With CSc1ccc(-c2sc(Nc3ccccc3)n[n+]2-c2ccccc2)cc1 the EC50 [5] was > 32 µM (inactive) and the EC50 [6] was 7.33 µM (active).
With CC(C)=C1C2CCC1C1C(=O)N(c3nc(-c4ccc(C(C)C)cc4)c(C)s3)C(=O)C21 (stereo unspecified) the EC50 [7] was 3.79 µM (active).
For CCN(CC)CCNC(=O)C(C(=O)c1ccccc1)n1ccccc1=O (stereo unspecified), the AC50 [8] was 2.16 µM (active).
For O=C(c1ccc(Cl)cc1)N1CCN(c2nc3ccccc3s2)CC1, the AC50 (Candida albicans [9]) was 0.565 µM (active) and the AC50 (Candida albicans [10]) was 1.41 µM (active).
